Columns and labels:
[1] = tested on: panel of 6 selected human cancer cell lines (LXFL 1674L, SW-620, CAL-27, RKO, MDA-MB-468, SK-OV-3); experiment: IC50 determination in a panel of tumor cell lines (CellTiter-Blue Cell Viability assay); type: cell-based; settings: geometric mean over six cell lines, 96 h treatment; read-out: Geometric mean IC50
Method: Samples were provided to Charles River Discovery Research Services Germany GmbH as frozen stock solutions in pharmaceutical grade DMSO (Sigma-Aldrich, Taufkirchen, Germany). On each day of the experiment, a frozen aliquot of stock solution was thawed. Subsequent serial dilutions were realized with complete RPMI 1640 cell culture medium using an intermediate dilution plate. 10 μL taken from the intermediate dilution plate were then transferred to 140 μL/well of the cell culture plate. Cells were treated with the test compounds at 10 concentrations in triplicate in half-log steps from 0.003 nM to 100 nM for a period of 96 h.
The compounds were tested in a panel of 6 selected human cancer cell lines by using CellTiter-Blue® Cell Viability assay (Promega, Mannheim, Germany). IC values are reported as absolute IC50 values, obtained for a test compound as the geometric mean of IC50 values over all cell lines tested.
The cell lines used were LXFL 1674L (established from patient-derived xenograft at Charles River Discovery Research Services Germany GmbH), SW-620 (kindly provided by the NCI, Bethesda, Md., USA), CAL-27 (purchased from DSMZ, Deutsche Sammlung von Mikroorganismen und Zellkulturen, Braunschweig, Germany), RKO, MDA-MB-468, and SK-OV-3 (from ATCC, American Type Culture Collection, Rockville, Md., USA). Authenticity of all cell lines was proven at the DSMZ by STR (short tandem repeat) analysis, a PCR based DNA-fingerprinting methodology. Cell lines were routinely passaged once or twice weekly and maintained in culture for up to 20 passages. Cells were grown at 37° C. in a humidified atmosphere with 5% CO2 in RPMI 1640 medium (25 mM HEPES, with L-glutamine, Biochrom, Berlin, Germany) supplemented with 10% (v/v) fetal calf serum (Sigma-Aldrich, Taufkirchen, Germany) and 0.1 mg/mL gentamicin (Life Technologies, Karlsruhe, Germany). The CellTiter-Blue® Cell Viability Assay was used according to manufacturer's instructions. Briefly, cells were harvested from exponential phase cultures, counted and plated in 96-well flat-bottom microtiter plates at a cell density of 4,000-10,000 cells/well depending on the cell line's growth rate. After a 24 h recovery period to allow the cells to resume exponential growth, 10 μL of culture medium (six control wells/plate) or of culture medium with test compound were added. The compounds were applied at 10 concentrations in triplicate in half-log increments up to 100 nM and cells were treated continuously for 96 h. […] Following an incubation period of up to 4 h, fluorescence (FU) was measured by using the Enspire Multimode Plate Reader (excitation λ=531 nm, emission λ=615 nm). IC50 values were determined with GraphPad Prism bioanalytic software (San Diego, Calif., USA).

[2] = tested on: renal cell cancer model RXF631; experiment: Human renal cell cancer model RXF631, small tumors; type: in vivo, NMRI nude mice
Source text: Mice were kept under a 14-hour light/10-hour dark, artificial light cycle. The animals were fed with autoclaved Teklad Global 19% Protein Extruded Diet (T.2019S.12) from Envigo RMS SARL and had access to sterile filtered and acidified (pH 2.5) tap water which was changed twice weekly. Feed and water were provided ad libitum. […] Animals were routinely monitored twice daily on working days and daily on Saturdays and Sundays. Starting on day 0, animals were weighed twice a week. Relative body weights (RBW) of individual animals were calculated by dividing the individual absolute body weight on day X (BWx) by the individual body weight on the day of randomization multiplied by 100%. […] Tumor volumes were calculated according to the following equation: […]
Statistical analysis was only carried out if at least 50% of the initially randomized animals in a relevant group were still alive. Comparisons between test groups were carried out for the same days. By convention, p-values ≤0.05 indicate significance of tumor inhibition. Statistical calculations were performed using GraphPad Prism bioanalytic software (San Diego Calif. USA, www.graphpad.com).
The initial evaluation of auristatin E and the albumin-binding auristatin E derivative AE-Ester-Sulf07 in a human renal cell cancer model RXF631 was carried out as described in the general procedure for a patient-derived xenograft model.

[3] = target: T1, cysteine-34 of human serum albumin (Homo sapiens, UniProt P02768); experiment: Binding specificity to cysteine-34 of human serum albumin in human plasma (HIC); type: in vitro ADME; settings: 5 minutes at 37° C.
T1 construct: from tissue; host or cells: human plasma (frozen, thawed, filtered)
Method: The albumin-binding auristatin-Sulf07 derivatives were reconstituted in 50 mM sodium phosphate buffer pH 7.6 and 5% sucrose which contained 2-HPβCD. 2% HPβCD concentration was used to reconstitute the AE-Keto-Sulf07 and 4% for the AE-Ester-Sulf07 respectively. Both drugs were reconstituted at a concentration of 1 mg/mL (AE-Ester-Sulf07 780 μM, AE-Keto-Sulf07 880 μM).
Human plasma was removed from −80° C. storage and allowed to reach room temperature. The thawed plasma was spun down at 13.6 kRPM for 60 seconds, the supernatant was filtered through filter needle (5 μm) and subsequently through a 0.45 μm CA membrane. 180 μL of the appropriate plasma was used for each binding experiment. The plasma was incubated at 37° C. using an Eppendorf Thermomixer C. After 30 minutes incubation 20 μL of the appropriate albumin-binding auristatin-Sulf07 derivative was added. The albumin-binding drug was allowed to react in the plasma for 5 minutes at 37° C. After 5 minutes the solution was analyzed directly by HPLC hydrophobic interaction chromatography (HIC, method 6, 250 nm) to confirm the site specific conjugation to albumin and formation of the albumin drug conjugate.

T1 sequence (P02768 25-609): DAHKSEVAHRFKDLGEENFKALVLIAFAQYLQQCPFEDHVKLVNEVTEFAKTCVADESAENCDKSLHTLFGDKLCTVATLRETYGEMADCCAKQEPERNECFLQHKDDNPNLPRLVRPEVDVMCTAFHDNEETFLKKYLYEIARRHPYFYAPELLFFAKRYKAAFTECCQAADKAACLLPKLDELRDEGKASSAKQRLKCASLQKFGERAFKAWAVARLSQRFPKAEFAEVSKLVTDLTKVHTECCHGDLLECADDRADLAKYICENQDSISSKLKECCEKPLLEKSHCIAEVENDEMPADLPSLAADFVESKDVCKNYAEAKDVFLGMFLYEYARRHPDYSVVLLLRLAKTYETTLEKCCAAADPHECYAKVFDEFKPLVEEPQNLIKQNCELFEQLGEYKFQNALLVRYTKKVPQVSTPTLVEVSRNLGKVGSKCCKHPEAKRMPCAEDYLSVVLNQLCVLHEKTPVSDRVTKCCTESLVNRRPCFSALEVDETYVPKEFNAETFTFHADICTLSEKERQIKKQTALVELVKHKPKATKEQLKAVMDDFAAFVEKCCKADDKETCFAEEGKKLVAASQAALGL

Compound: CC[C@H](C)[C@@H]([C@@H](CC(=O)N1CCC[C@H]1[C@H](OC)[C@@H](C)C(=O)N[C@H](C)[C@@H](O)c1ccccc1)OC)N(C)C(=O)[C@@H](NC(=O)[C@H](C(C)C)N(C)C)C(C)C [auristatin E]
- IC50 [1]: 0.13 nM
- tumor response ([2]; 0.3 mg/kg twice weekly, up to day ˜40): stable disease (stable disease >75-125%)

Compound: CC[C@H](C)[C@@H]([C@@H](CC(=O)N1CCC[C@H]1[C@H](OC)[C@@H](C)C(=O)N[C@H](C)C(=NNC(=O)c1ccc(NC(=O)CCCCCN2C(=O)C=CC2=O)cc1S(=O)(=O)O)c1ccccc1)OC)N(C)C(=O)[C@@H](NC(=O)[C@H](C(C)C)N(C)C)C(C)C [AE-Keto-Sulf07, 2-(2-((R)-2-((2R,3R)-3-((S)-1-((3R,4S,5S)-4-((S)-2-((S)-2-(dimethylamino)-3-methylbutanamido)-N,3-dimethylbutanamido)-3-methoxy-5-methylheptanoyl)pyrrolidin-2-yl)-3-methoxy-2-methylpropanamido)-1-phenylpropylidene)hydrazine-1-carbonyl)-5-(6-(2,5-dioxo-2,5-dihydro-1H-pyrrol-1-yl)hexanamido)benzenesulfonic acid]
- specificity of binding to albumin [3]: demonstrated

Compound: 2-(2-(1-(4-(((1S,2R)-2-((2R,3R)-3-((S)-1-((3R,4R,5S)-4-((S)-2-((R)-2-(dimethylamino)-3-methylbutanamido)-N,3-dimethylbutanamido)-3-methoxy-5-methylheptanoyl)pyrrolidin-2-yl)-3-methoxy-2-methylpropanamido)-1-phenylpropoxy)carbonyl)phenyl)ethylidene)hydrazine-1-carbonyl)-5-(6-(2,5-dioxo-2,5-dihydro-1H-pyrrol-1-yl)hexanamido)benzenesulfonic acid [AE-Ester-Sulf07]
- specificity of binding to albumin [3]: demonstrated
- minimum tumor volume ([2]; 2.2 mg/kg (3.0 mg/kg on day 15 and 19) twice weekly): 1 mm^3
- tumor response ([2]; 2.2 mg/kg (3.0 mg/kg on day 15 and 19) twice weekly, day 24 to day 53): complete remission (complete remission <10%)
- p, antitumor efficacy versus auristatin E ([2]; 2.2 mg/kg (3.0 mg/kg on injection day 15 and 19) versus auristatin E 0.3 mg/kg, twice weekly): < 0.05
- side effects ([2]; 2.2-3.0 mg/kg twice weekly): Wounds due to biting and scratching were also observed starting from day 17
- animals lost ([2]; 2.2-3.0 mg/kg, on day 20, 43 and 66): Two mice died, and one had to be sacrificed for general bad conditions
- transient body weight loss ([2]; 2.2-3.0 mg/kg, reached on day 31): 9%

Reference: patent US11377473B2, “Albumin-binding prodrugs of auristatin E derivatives” (priority 2017, dated 2022)
